Measurements taken from patent US20220241354A1, “COMPOSITION” (MORINAGA MILK INDUSTRY CO., LTD., priority 2019, published 2022).

Experiments:
[1] = system: Bifidobacterium breve M-16V; assay: Growth promoting effect on Bifidobacterium breve M-16V (turbidity at 600 nm after anaerobic culture); assay type: cell-based; details: 2′-FL 1.000 mass %, lactoferrin 0.000 mg/mL; glucose-free MRS, 37° C., 24 hours, n = 4
Protocol: (§1) DifcoMRS (BD) was dissolved in purified water as described in a package insert and sterilized at 115° C. for 15 minutes. L-Cysteine hydrochloride (Wako) was dissolved in purified water, filtered and sterilized, and was aseptically added to MRS medium cooled to room temperature after sterilization to have a final concentration of 0.05% by mass.
as §1, with “A reagent” for “DifcoMRS (BD)”, “with the composition shown” for “as described”, “Table 1” for “a package insert”
Human milk oligosaccharide (2′-fucosyllactose (2′-FL) (Carbosynth)) and lactoferrin (produced by Morinaga Milk Industry Co., Ltd., iron content 15.8 mg/100 g) were dissolved in purified water, respectively. They were filtered and sterilized after dissolution.
150 μL of a pre-culture solution of Bifidobacterium breve M-16V was added to 3 mL of MRS medium prepared in (1) (i), and was anaerobically cultured at 37° C. for 16 hours. […]
(§2) Then, the cells were anaerobically cultured at 37° C. for 24 hours. After culturing, turbidity was measured at a wavelength of 600 nm using a microplate reader (Corona Electric) to evaluate the growth of bifidobacteria.

[2] = system: Bifidobacterium infantis M-63; assay: Growth promoting effect on Bifidobacterium infantis M-63 (turbidity at 600 nm); assay type: cell-based; details: 2′-FL 1.000 mass %, lactoferrin 0.000 mg/mL; 37° C., 24 hours, n = 12
Protocol: 150 μL of a pre-culture solution of Bifidobacterium breve M-16V was added to 3 mL of MRS medium prepared in (1) (i), and was anaerobically cultured at 37° C. for 16 hours. After culturing, the cells were separated from the culture solution by centrifuging at 1500×g for 5 minutes. The culture solution was removed, and the cells were resuspended in 3 mL of glucose-free MRS medium prepared in (1) (ii).
The pre-culture solution prepared in (2) was added to the glucose-free MRS medium prepared in (1) (ii) to have a final concentration of 1 v/v %. Further, the 2′-fucosyllactose (2′-FL) solution and the lactoferrin solution prepared in (1) (iii) were respectively added to have the final concentrations shown in Table 2, and were dispensed into a 96-well plate at 200 μL/well.
as §2
The same operation as in Example 1 was carried out except that the bifidobacteria were replaced with Bifidobacterium infantis M-63, and the growth was evaluated.

## 2′-fucosyllactose [2′-FL]
[1]
  OD600: 0.076
[2]
  OD600: 0.440
